Source: patent US11802111B2, “Cyclobutyl amide monoacylglycerol lipase modulators” (Janssen Pharmaceutica NV, priority 2020, dated 2023)

Target: human MGL from HeLa cells (Homo sapiens (Human), UniProt Q99685)
Assay: MGL in vitro activity assay ([glycerol-1,3-3H]-oleoyl glycerol hydrolysis, activated carbon filtration)
Format: biochemical
Conditions: 300 nM [Glycerol-1,3-3H]-oleoyl glycerol, one hour
Outline: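 Endogenous human MGL in HeLa cells/homogenates incubated 1 h with test compounds and 300 nM [glycerol-1,3-3H]-oleoyl glycerol. Released 3H-glycerol passing an activated carbon filter counted as activity; screening at 10 μM compound, top IC50 concentration set empirically.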

human MGL from HeLa cells, sequence (Q99685 whole entry): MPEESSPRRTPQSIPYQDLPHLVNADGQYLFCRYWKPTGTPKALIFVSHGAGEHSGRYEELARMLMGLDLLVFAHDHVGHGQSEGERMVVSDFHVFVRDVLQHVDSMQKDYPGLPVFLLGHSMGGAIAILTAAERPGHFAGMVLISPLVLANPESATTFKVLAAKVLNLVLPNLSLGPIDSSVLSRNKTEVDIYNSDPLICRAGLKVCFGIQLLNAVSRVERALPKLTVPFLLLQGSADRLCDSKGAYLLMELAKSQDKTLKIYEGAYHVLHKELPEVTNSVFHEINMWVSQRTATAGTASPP

IC50 [nM]	Compound
507	Cn1ccc2ccc(C3CC4(C3)CN(C(=O)[C@H]3C[C@@](C)(O)C3)C4)nc21 [Example 269, ((1s,3s)-3-Hydroxy-3-methylcyclobutyl)(6-(1-methyl-1H-pyrrolo[2,3-b]pyridin-6-yl)-2-azaspiro[3.3]heptan-2-yl)methanone]
3290	COC1(Cc2ccccc2)CC2(CN(C(=O)[C@H]3C[C@@](C)(O)C3)C2)C1 [Example 270, (6-Benzyl-6-methoxy-2-azaspiro[3.3]heptan-2-yl)((1s,3s)-3-hydroxy-3-methylcyclobutyl)methanone]
3.6	C[C@]1(O)C[C@@H](C(=O)N2CC3(CC(Cc4ccccc4C4CC4)C3)C2)C1 [Example 271, (6-(2-Cyclopropylbenzyl)-2-azaspiro[3.3]heptan-2-yl)((1s,3s)-3-hydroxy-3-methylcyclobutyl)methanone]
8.1	C[C@]1(O)C[C@@H](C(=O)N2CC3(CC(Cc4ccc(OC5CC5)cc4)C3)C2)C1 [Example 272, (6-(4-Cyclopropoxybenzyl)-2-azaspiro[3.3]heptan-2-yl)((1s,3s)-3-hydroxy-3-methylcyclobutyl)methanone]
9.9	Cc1cc(F)ccc1CC1CC2(C1)CN(C(=O)[C@H]1C[C@@](C)(O)C1)C2 [Example 273, (6-(4-Fluoro-2-methylbenzyl)-2-azaspiro[3.3]heptan-2-yl)((1s,3s)-3-hydroxy-3-methylcyclobutyl)methanone]
6.2	COc1ccc(CC2CC3(C2)CN(C(=O)[C@H]2C[C@@](C)(O)C2)C3)c(C(F)F)c1 [Example 274, (6-(2-(Difluoromethyl)-4-methoxybenzyl)-2-azaspiro[3.3]heptan-2-yl)((1s,3s)-3-hydroxy-3-methylcyclobutyl)methanone]
0.44	COc1cc(C(F)F)ccc1CC1CC2(C1)CN(C(=O)[C@H]1C[C@@](C)(O)C1)C2 [Example 275, (6-(4-(Difluoromethyl)-2-methoxybenzyl)-2-azaspiro[3.3]heptan-2-yl)((1s,3s)-3-hydroxy-3-methylcyclobutyl)methanone]
1	COc1cc(CC2CC3(C2)CN(C(=O)[C@H]2C[C@@](C)(O)C2)C3)ccc1C(F)(F)F [Example 276, ((1s,3s)-3-Hydroxy-3-methylcyclobutyl)(6-(3-methoxy-4-(trifluoromethyl)benzyl)-2-azaspiro[3.3]heptan-2-yl)methanone]
18	Cc1ccc(CC2CC3(C2)CN(C(=O)[C@H]2C[C@@](C)(O)C2)C3)nc1C(F)(F)F [Example 277, ((1s,3s)-3-Hydroxy-3-methylcyclobutyl)(6-((5-methyl-6-(trifluoromethyl)pyridin-2-yl)methyl)-2-azaspiro[3.3]heptan-2-yl)methanone]
16	Cc1nc(CC2CC3(C2)CN(C(=O)[C@H]2C[C@@](C)(O)C2)C3)ccc1C(F)(F)F [Example 278, ((1s,3s)-3-Hydroxy-3-methylcyclobutyl)(6-((6-methyl-5-(trifluoromethyl)pyridin-2-yl)methyl)-2-azaspiro[3.3]heptan-2-yl)methanone]
10	Cc1ccc(CC2CC3(C2)CN(C(=O)[C@H]2C[C@@](C)(O)C2)C3)nc1OC(C)C [Example 279, ((1s,3s)-3-Hydroxy-3-methylcyclobutyl)(6-((6-isopropoxy-5-methylpyridin-2-yl)methyl)-2-azaspiro[3.3]heptan-2-yl)methanone]
37	Cc1nc(CC2CC3(C2)CN(C(=O)[C@H]2C[C@@](C)(O)C2)C3)ccc1OC(F)F [Example 280, (6-((5-(Difluoromethoxy)-6-methylpyridin-2-yl)methyl)-2-azaspiro[3.3]heptan-2-yl)((1s,3s)-3-hydroxy-3-methylcyclobutyl)methanone]
1.2	COc1nc(CC2CC3(C2)CN(C(=O)[C@H]2C[C@@](C)(O)C2)C3)ccc1C(F)(F)F [Example 281, ((1s,3s)-3-Hydroxy-3-methylcyclobutyl)(6-((6-methoxy-5-(trifluoromethyl)pyridin-2-yl)methyl)-2-azaspiro[3.3]heptan-2-yl)methanone]
1	CC(C)Oc1nc(CC2CC3(C2)CN(C(=O)[C@H]2C[C@@](C)(O)C2)C3)ccc1C(F)(F)F [Example 282, ((1s,3s)-3-Hydroxy-3-methylcyclobutyl)(6-((6-isopropoxy-5-(trifluoromethyl)pyridin-2-yl)methyl)-2-azaspiro[3.3]heptan-2-yl)methanone]
116	Cn1nc(CC2CC3(C2)CN(C(=O)[C@H]2C[C@@](C)(O)C2)C3)cc1C(F)(F)F [Example 283, ((1s,3s)-3-Hydroxy-3-methylcyclobutyl)(6-((1-methyl-5-(trifluoromethyl)-1H-pyrazol-3-yl)methyl)-2-azaspiro[3.3]heptan-2-yl)methanone]
122	C[C@]1(O)C[C@@H](C(=O)N2CC3(CC(Cc4ccc5ccnn5c4)C3)C2)C1 [Example 284, ((1s,3s)-3-Hydroxy-3-methylcyclobutyl)(6-(pyrazolo[1,5-c]pyridin-6-ylmethyl)-2-azaspiro[3.3]heptan-2-yl)methanone]
47	C[C@]1(O)C[C@@H](C(=O)N2CC3(CC(Cc4cccc5ccnn45)C3)C2)C1 [Example 285, ((1s,3s)-3-Hydroxy-3-methylcyclobutyl)(6-(pyrazolo[1,5-c]pyridin-7-ylmethyl)-2-azaspiro[3.3]heptan-2-yl)methanone]
90	C[C@]1(O)C[C@@H](C(=O)N2CC3(CC(Cn4ccc5cccnc54)C3)C2)C1 [Example 286, (6-((1H-Pyrrolo[2,3-b]pyridin-1-yl)methyl)-2-azaspiro[3.3]heptan-2-yl)((1s,3s)-3-hydroxy-3-methylcyclobutyl)methanone]
67	Cc1cc2cccnc2n1CC1CC2(C1)CN(C(=O)[C@H]1C[C@@](C)(O)C1)C2 [Example 287, ((1s,3s)-3-Hydroxy-3-methylcyclobutyl)(6-((2-methyl-1H-pyrrolo[2,3-b]pyridin-1-yl)methyl)-2-azaspiro[3.3]heptan-2-yl)methanone]
26	Cc1ccc2ccn(CC3CC4(C3)CN(C(=O)[C@H]3C[C@@](C)(O)C3)C4)c2n1 [Example 288, ((1s,3s)-3-Hydroxy-3-methylcyclobutyl)(6-((6-methyl-1H-pyrrolo[2,3-b]pyridin-1-yl)methyl)-2-azaspiro[3.3]heptan-2-yl)methanone]
16	CC(C)c1ccc2ccn(CC3CC4(C3)CN(C(=O)[C@H]3C[C@@](C)(O)C3)C4)c2n1 [Example 290, ((1s,3s)-3-Hydroxy-3-methylcyclobutyl)(6-((6-isopropyl-1H-pyrrolo[2,3-b]pyridin-1-yl)methyl)-2-azaspiro[3.3]heptan-2-yl)methanone]
3.8	Cc1cn(C)c2nc(CC3CC4(C3)CN(C(=O)[C@H]3C[C@@](C)(O)C3)C4)ccc12 [Example 291, (6-((1,3-Dimethyl-1H-pyrrolo[2,3-b]pyridin-6-yl)methyl)-2-azaspiro[3.3]heptan-2-yl)((1s,3s)-3-hydroxy-3-methylcyclobutyl)methanone]

Compound	IC50 [nM]
CC(C)n1ccc2ccc(CC3CC4(C3)CN(C(=O)C3CC(C)(O)C3)C4)nc21 (centres unmarked) [Example 289, ((1s,3s)-3-Hydroxy-3-methylcyclobutyl)(6-((1-isopropyl-1H-pyrrolo[2,3-b]pyridin-6-yl)methyl)-2-azaspiro[3.3]heptan-2-yl)methanone]	8.2
